Source: US8318730B2, “Fused hetrocyclic compounds” (Synta Pharmaceuticals Corporation, priority 2003, dated 2012)

System: IL-12 production
Assay: In vitro assay of Example 12: inhibition of IL-12 production in IFNγ/LPS- or IFNγ/SAC-stimulated cells, ELISA
Format: cell-based, human
Conditions: Homo sapiens; assay of Example 12; if more than one assay was performed, only the most active IC50 result is reported
Excerpt: The biological activities of a compound can be evaluated by a number of cell-based assays. One of such assays can be conducted using cells from human peripheral blood mononuclear cells (PBMC) or human monocytic cell line (THP-1). The cells are stimulated with a combination of human interferon-γ (IFNγ) and lipopolysaccharide or a combination of IFNγ and Staphylococcus aureus Cowan I in the presence of a test compound. The level of inhibition of IL-12 production can be measured by determining the amount of p70 by using a sandwich ELISA assay with anti-human IL-12 antibodies. IC50 of the test compound can then be determined. Specifically, PBMC or THP-1 cells are incubated with the test compound. Cell viability was assessed using the bioreduction of MTS [3-(4,5-dimethylthiazol-2-yl)-5-(3-carboxymethoxyphenyl)-2-(4-sulfophenyl)-2H-tetrazolium] (Promega, Madison, Wis.).
Staphylococcus aureus Cowan I (SAC) is obtained from Calbiochem (La Jolla, Calif.), and lipopolysaccharide (LPS, Serratia marscencens) is obtained from Sigma (St. Louis, Mo.). Human and mouse recombinant IFNγ are purchased from Boehringer Mannheim (Mannheim, Germany) and Pharmingen (San Diego, Calif.), respectively.
Human PBMC are isolated by centrifugation using Ficoll-Paque (Pharmacia Biotech, Uppsala, Sweden) and prepared in RPMI medium supplemented with 10% fetal calf serum (FCS), 100 U/mL penicillin, and 100 μg/mL streptomycin. PBMC are plated in wells of a 96-well plate at a concentration of 5×10^5 cells/well, and primed by adding IFNγ (30 U/mL) for 22 h and stimulated by adding LPS (1 μg/mL), or by adding IFNγ (100 U/mL) and then stimulated by adding SAC (0.01%). A test quinazoline compound is dissolved in DMSO, and added to wells of the 96-well plate. The final DMSO concentration is adjusted to 0.25% in all cultures, including the compound-free control. Human THP-1 cells are plated in wells, primed by adding IFNγ (100 U/mL) for 22 h and stimulated by adding SAC (0.025%) in the presence of different concentrations of the quinazoline compound. Cell-free supernatants are taken 18 h later for measurement of cytokines. Cell viability is assessed using the bioreduction of MTS. Cell survival is estimated by determining the ratio of the absorbance in compound-treated groups versus compound-free control.
The supernatant is assayed for the amount of IL-12p40, IL-12p70, or IL-10 by using a sandwich ELISA with anti-human antibodies, i.e., a Human IL-12 p40 ELISA kit from R&D Systems (Berkeley, Calif.), and a Human IL-12 p70 or IL-10 ELISA kit from Endogen (Cambridge, Mass.). Assays are based on the manufacturer's instructions.
The biological activities of quinazoline compounds are tested on human PBMC or THP-1 cells.

Compound	IC50 [nM]
Fc1ccc(-c2ccc3nc(OCCN4CCOCC4)nc(N4CCOCC4)c3c2)cc1 [Compound 38, 6-(4-Fluoro-phenyl)-4-morpholin-4-yl-2-(2-morpholin-4-yl-ethoxy)-quinazoline]	> 10000
COc1ccc(CCOc2nc(N3CCOCC3)c3cc(Nc4cccc(C)c4)ccc3n2)cc1OC [Compound 39, {2-[2-(3,4-Dimethoxy-phenyl)-ethoxy]-4-morpholin-4-yl-quinazolin-6-yl}-m-tolyl-amine]	> 10000
Cc1cccc(-c2cnc3nc(OCCN4CCOCC4)nc(N4CCOCC4)c3c2)c1 [Compound 42, 4-Morpholin-4-yl-2-(2-morpholin-4-yl-ethoxy)-6-m-tolyl-pyrido[2,3-d]pyrimidine]	> 10000
Cc1ccccc1Oc1cnc2nc(OCCN3CCOCC3)nc(N3CCOCC3)c2c1 [Compound 46, 4-Morpholin-4-yl-2-(2-morpholin-4-yl-ethoxy)-6-o-tolyloxy-pyrido[2,3-d]pyrimidine]	> 1000
COc1ccc(CCOc2nc(N3CCOCC3)c3cc(-c4cccc(C#N)c4)ccc3n2)cc1OC [Compound 23, 3-{2-[2-(3,4-Dimethoxy-phenyl)-ethoxy]-4-morpholin-4-yl-quinazolin-6-yl}-benzonitrile]	> 10000
c1ccc(Oc2cnc3nc(OCCN4CCOCC4)nc(N4CCOCC4)c3c2)cc1 [Compound 48, 4-Morpholin-4-yl-2-(2-morpholin-4-yl-ethoxy)-6-phenoxy-pyrido[2,3-d]pyrimidine]	> 1000
Cc1ccc(-c2cnc3nc(OCCN4CCOCC4)nc(N4CCOCC4)c3c2)cc1C [Compound 44, 6-(3,4-Dimethyl-phenyl)-4-morpholin-4-yl-2-(2-morpholin-4-yl-ethoxy)-pyrido[2,3-d]pyrimidine]	> 10000
Cc1ccc(Oc2cnc3nc(OCCN4CCOCC4)nc(N4CCOCC4)c3c2)cc1 [Compound 47, 4-Morpholin-4-yl-2-(2-morpholin-4-yl-ethoxy)-6-p-tolyloxy-pyrido[2,3-d]pyrimidine]	> 1000

Results, then the compound that gave them:

IC50 [nM]	Compound
> 1000	COc1ccc(CCOc2nc(N3CCOCC3)c3cc(-c4ccc(Cl)cc4)ccc3n2)cc1OC [Compound 30, 6-(4-Chloro-phenyl)-2-[2-(3,4-dimethoxy-phenyl)-ethoxy]-4-morpholin-4-yl-quinazoline]
86	Cc1cccc(-c2ccc3nc(OCCc4ccccn4)nc(N4CCOCC4)c3c2)c1 [Compound 16, 4-Morpholin-4-yl-2-(2-pyridin-2-yl-ethoxy)-6-m-tolyl-quinazoline]
107	COc1ccc(CCOc2nc(N3CCOCC3)c3cc(-c4cccc(C(F)(F)F)c4)ccc3n2)cc1OC [Compound 20, 2-[2-(3,4-Dimethoxy-phenyl)-ethoxy]-4-morpholin-4-yl-6-(3-trifluoromethyl-phenyl)-quinazoline]
3000	c1ccc(Nc2ccc3nc(OCCN4CCOCC4)nc(N4CCOCC4)c3c2)cc1 [Compound 14, [4-Morpholin-4-yl-2-(2-morpholin-4-yl-ethoxy)-quinazolin-6-yl]-phenyl-amine]
107	COc1ccc(CCOc2nc(N3CCOCC3)c3cc(-c4ccc(C)c(C)c4)ccc3n2)cc1OC [Compound 26, 2-[2-(3,4-Dimethoxy-phenyl)-ethoxy]-6-(3,4-dimethyl-phenyl)-4-morpholin-4-yl-quinazoline]
9900	COc1ccc(CCOc2nc(N3CCOCC3)c3cc(Oc4cccc(Cl)c4)ccc3n2)cc1OC [Compound 35, 6-(3-Chloro-phenoxy)-2-[2-(3,4-dimethoxy-phenyl)-ethoxy]-4-morpholin-4-yl-quinazoline]
2500	Cc1ccc(-c2ccc3nc(OCCN4CCOCC4)nc(N4CCOCC4)c3c2)cc1 [Compound 37, 4-Morpholin-4-yl-2-(2-morpholin-4-yl-ethoxy)-6-p-tolyl-quinazoline]
2600	COc1ccc(CCOc2nc(N3CCOCC3)c3cc(Oc4ccc(C)cc4)ccc3n2)cc1OC [Compound 36, 2-[2-(3,4-Dimethoxy-phenyl)-ethoxy]-4-morpholin-4-yl-6-p-tolyloxy-quinazoline]
64	COc1ccc(CCOc2nc(N3CCOCC3)c3cc(-c4cc5ccccc5o4)ccc3n2)cc1OC [Compound 28, 6-Benzofuran-2-yl-2-[2-(3,4-dimethoxy-phenyl)-ethoxy]-4-morpholin-4-yl-quinazoline]
59	COc1ccc(CCOc2nc(N3CCOCC3)c3cc(-c4ccc(C)cc4)ccc3n2)cc1OC [Compound 21, 2-[2-(3,4-Dimethoxy-phenyl)-ethoxy]-4-morpholin-4-yl-6-p-tolyl-quinazoline]
470	COc1ccc(CCOc2nc(N3CCOCC3)c3cc(-c4cc(C)cc(C)c4)ccc3n2)cc1OC [Compound 27, 2-[2-(3,4-Dimethoxy-phenyl)-ethoxy]-6-(3,5-dimethyl-phenyl)-4-morpholin-4-yl-quinazoline]
770	c1ccc2oc(-c3cnc4nc(OCCN5CCOCC5)nc(N5CCOCC5)c4c3)cc2c1 [Compound 45, 6-Benzofuran-2-yl-4-morpholin-4-yl-2-(2-morpholin-4-yl-ethoxy)-pyrido[2,3-d]pyrimidine]
1430	COc1ccc(CCOc2nc(N3CCOCC3)c3cc(-c4cccc(C(N)=O)c4)ccc3n2)cc1OC [Compound 24, 3-{2-[2-(3,4-Dimethoxy-phenyl)-ethoxy]-4-morpholin-4-yl-quinazolin-6-yl}-benzamide]
347	COc1ccc(CCOc2nc(N3CCOCC3)c3cc(Oc4ccccc4Cl)ccc3n2)cc1OC [Compound 34, 6-(2-Chloro-phenoxy)-2-[2-(3,4-dimethoxy-phenyl)-ethoxy]-4-morpholin-4-yl-quinazoline]
3000	COc1ccc(CCOc2nc(N3CCOCC3)c3cc(-c4ccc(C(F)(F)F)cc4)ccc3n2)cc1OC [Compound 32, 2-[2-(3,4-Dimethoxy-phenyl)-ethoxy]-4-morpholin-4-yl-6-(4-trifluoromethyl-phenyl)-quinazoline]
6910	COc1ccc(CCOc2nc(N3CCOCC3)c3cc(-c4ccccc4)ccc3n2)cc1OC [Compound 19, 2-[2-(3,4-Dimethoxy-phenyl)-ethoxy]-4-morpholin-4-yl-6-phenyl-quinazoline]
1400	FC(F)(F)c1cccc(-c2cnc3nc(OCCN4CCOCC4)nc(N4CCOCC4)c3c2)c1 [Compound 43, 4-Morpholin-4-yl-2-(2-morpholin-4-yl-ethoxy)-6-(3-trifluoromethyl-phenyl)-pyrido[2,3-d]pyrimidine]
3040	COc1ccc(CCOc2nc(N3CCOCC3)c3cc(-c4ccc(C)s4)ccc3n2)cc1OC [Compound 22, 2-[2-(3,4-Dimethoxy-phenyl)-ethoxy]-6-(5-methyl-thiophen-2-yl)-4-morpholin-4-yl-quinazoline]
162	Cc1cccc(-c2ccc3nc(OCCO)nc(N4CCOCC4)c3c2)c1 [Compound 18, 2-(4-Morpholin-4-yl-6-m-tolyl-quinazolin-2-yloxy)-ethanol]

Same assay, conditions: assay of Example 12; if more than one assay was performed, only the most active IC50 result is reported

IC50 [nM]	Compound
370	2-Methyl-1-(4-morpholin-4-yl-6-m-tolyl-quinazolin-2-yloxy)-propan-2-ol [Compound 17]

Same assay, conditions: measured in an assay according to Example 12; human PBMC or THP-1 cells

IC50 [nM]	Compound
98.8	COc1cc2nc(N3CCOCC3)nc(NN=Cc3cccc(C)c3)c2cc1OC [Compound 1, N-(6,7-Dimethoxy-2-morpholin-4-yl-quinazolin-4-yl)-N′-(3-methyl-benzylidene)-hydrazine]
5000	Cc1[nH]c2ccc(Nc3nc(N4CCOCC4)nc4ccc([N+](=O)[O-])cc34)cc2c1C [Compound 10, (2,3-Dimethyl-1H-indol-5-yl)-(2-morpholin-4-yl-6-nitro-quinazolin-4-yl)-amine]
109	COc1cc2nc(N3CCOCC3)nc(Nc3ccc4[nH]c(C)c(C)c4c3)c2cc1OC [Compound 2, (6,7-Dimethoxy-2-morpholin-4-yl-quinazolin-4-yl)-(2,3-dimethyl-1H-indol-5-yl)-amine]
800	COc1cc2nc(N3CCOCC3)nc(N/N=C/c3cccc(C)c3)c2cc1OCCOc1ccccc1 [Compound 9, N-[7-Methoxy-2-morpholin-4-yl-6-(2-phenoxy-ethoxy)-quinazolin-4-yl]-N′-(3-methyl-benzylidene)-hydrazine]
10000	COc1cc2nc(N3CCOCC3)nc(Nc3cccc(C)c3)c2cc1OC [Compound 11, (6,7-Dimethoxy-2-morpholin-4-yl-quinazolin-4-yl)-m-tolyl-amine]
